compound: CC(C)(C)c1nc(-c2cccc(NS(=O)(=O)c3c(F)cccc3F)c2F)c(-c2ccnc(N)n2)s1 [Dabrafenib] + Nc1ncn([C@H]2C[C@H](O)[C@@H](CO)O2)c(=O)n1 [Decitabine] (partner 2 µM); test: relative viability (nuclei count vs DMSO), 5 days (fraction); higher = more cells survive; conditions: first compound 0.003 µM
Outline: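 Lung cancer cell lines were pin-tool dosed in 1536-well plates on the day after seeding, with either a lone drug or a fixed anchor-drug dose plus five library-drug doses (not always all listed) in √10 steps. Nuclei were counted on 4× images after 5 days. Relative viability is the ratio of treated-well to vehicle-well nuclei counts, with each value a median of duplicate plates.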

First: NCI-H1944
Second: NCI-H2085
The relative viability of the first is lower: 0.45 for the first, 0.552 for the second.

Compared with NCI-H2170, UMC-11 is higher in relative viability: 0.47 for the first, 0.707 for the second.

Compared with LCLC-103H, HCC-827 is lower in relative viability: 0.724 for the first, 0.267 for the second.

Going from COR-L 105 to NCI-H2126, the relative viability falls from 0.6 to 0.578.

First: NCI-H647
Second: HCC-44
The relative viability of the first is lower: 0.445 for the first, 1.04 for the second.

First: NCI-H1651
Second: NCI-H1755
The relative viability of the first is lower: 0.603 for the first, 0.654 for the second.

Going from HOP-62 to PC-14, the relative viability falls from 0.216 to 0.172.

Compared with NCI-H1650, ChaGo-K-1 is higher in relative viability: 0.415 for the first, 0.456 for the second.

First: A-427
Second: NCI-H1648
The relative viability of the first is lower: 0.569 for the first, 0.599 for the second.

Going from HCC-15 to NCI-H2342, the relative viability rises from 0.586 to 0.748.

First: LK-2
Second: NCI-H358
The relative viability of the first is higher: 0.225 for the first, 0.198 for the second.

In the case of SK-MES-1, the relative viability is reported as 0.362.

same assay, conditions: first compound 0.009487 µM

Going from ABC-1 to NCI-H1944, the relative viability falls from 1.07 to 0.46.

First: NCI-H2085
Second: NCI-H441
The relative viability of the first is higher: 0.575 for the first, 0.253 for the second.

First: NCI-H522
Second: EMC-BAC-2
The relative viability of the first is lower: 0.675 for the first, 0.959 for the second.

Going from NCI-H2170 to UMC-11, the relative viability rises from 0.472 to 0.603.

Going from NCI-H650 to LCLC-103H, the relative viability rises from 0.324 to 0.776.

Going from NCI-H596 to HCC-827, the relative viability falls from 1.1 to 0.347.

Going from COR-L 105 to NCI-H2126, the relative viability falls from 0.691 to 0.591.

First: A549
Second: NCI-H647
The relative viability of the first is lower: 0.277 for the first, 0.366 for the second.

First: LOU-NH91
Second: HCC-78
The relative viability of the first is higher: 0.868 for the first, 0.681 for the second.

Compared with HCC-44, NCI-H1651 is lower in relative viability: 0.851 for the first, 0.679 for the second.

First: NCI-H1755
Second: HOP-62
The relative viability of the first is higher: 0.706 for the first, 0.183 for the second.

Going from PC-14 to NCI-H1650, the relative viability rises from 0.276 to 0.389.

First: ChaGo-K-1
Second: A-427
The relative viability of the first is lower: 0.508 for the first, 0.562 for the second.

Compared with NCI-H1355, NCI-H1648 is higher in relative viability: 0.331 for the first, 0.463 for the second.

First: NCI-H1792
Second: HCC-15
The relative viability of the first is lower: 0.651 for the first, 0.677 for the second.

Compared with NCI-H1793, NCI-H2342 is higher in relative viability: 0.531 for the first, 0.723 for the second.

Compared with LK-2, NCI-H358 is lower in relative viability: 0.287 for the first, 0.198 for the second.

Compared with NCI-H1395, SK-MES-1 is lower in relative viability: 0.726 for the first, 0.441 for the second.

same assay, conditions: first compound 0.03 µM

First: ABC-1
Second: NCI-H1944
The relative viability of the first is higher: 1.15 for the first, 0.436 for the second.

Compared with NCI-H2085, NCI-H441 is lower in relative viability: 0.559 for the first, 0.279 for the second.

First: NCI-H522
Second: EMC-BAC-2
The relative viability of the first is lower: 0.64 for the first, 0.974 for the second.

Compared with NCI-H2170, UMC-11 is higher in relative viability: 0.423 for the first, 0.558 for the second.

Going from NCI-H650 to LCLC-103H, the relative viability rises from 0.33 to 0.696.

Going from NCI-H596 to HCC-827, the relative viability falls from 0.821 to 0.33.

Compared with COR-L 105, NCI-H2126 is lower in relative viability: 0.666 for the first, 0.57 for the second.

Compared with A549, NCI-H647 is higher in relative viability: 0.201 for the first, 0.308 for the second.

Compared with LOU-NH91, HCC-78 is lower in relative viability: 0.845 for the first, 0.55 for the second.

Compared with HCC-44, NCI-H1651 is lower in relative viability: 0.921 for the first, 0.618 for the second.

Compared with NCI-H1755, HOP-62 is lower in relative viability: 0.667 for the first, 0.221 for the second.

Compared with PC-14, NCI-H1650 is higher in relative viability: 0.24 for the first, 0.395 for the second.

First: ChaGo-K-1
Second: A-427
The relative viability of the first is lower: 0.552 for the first, 0.569 for the second.

First: NCI-H1355
Second: NCI-H1792
The relative viability of the first is lower: 0.381 for the first, 0.557 for the second.

First: HCC-15
Second: NCI-H2342
The relative viability of the first is higher: 0.665 for the first, 0.657 for the second.

Going from NCI-H358 to NCI-H1395, the relative viability rises from 0.186 to 0.738.

Cell Line SK-MES-1 has a relative viability of 0.405.

same assay, conditions: first compound 0.09487 µM

Going from ABC-1 to NCI-H1944, the relative viability falls from 1.28 to 0.467.

Compared with NCI-H2085, NCI-H441 is lower in relative viability: 0.592 for the first, 0.247 for the second.

Going from NCI-H522 to EMC-BAC-2, the relative viability rises from 0.755 to 0.933.

Going from NCI-H2170 to UMC-11, the relative viability falls from 0.42 to 0.383.

Compared with NCI-H650, LCLC-103H is higher in relative viability: 0.303 for the first, 0.658 for the second.

First: NCI-H596
Second: COR-L 105
The relative viability of the first is higher: 1.02 for the first, 0.681 for the second.

Going from NCI-H2126 to A549, the relative viability falls from 0.653 to 0.212.

Compared with NCI-H647, LOU-NH91 is higher in relative viability: 0.358 for the first, 0.838 for the second.

Going from HCC-78 to HCC-44, the relative viability rises from 0.625 to 0.963.

Compared with NCI-H1651, NCI-H1755 is higher in relative viability: 0.512 for the first, 0.722 for the second.

First: HOP-62
Second: PC-14
The relative viability of the first is lower: 0.188 for the first, 0.219 for the second.

Going from NCI-H1650 to ChaGo-K-1, the relative viability rises from 0.387 to 0.522.

First: A-427
Second: NCI-H1355
The relative viability of the first is higher: 0.551 for the first, 0.37 for the second.

Compared with NCI-H1648, NCI-H1792 is higher in relative viability: 0.372 for the first, 0.566 for the second.

First: HCC-15
Second: NCI-H1793
The relative viability of the first is higher: 0.669 for the first, 0.521 for the second.

First: NCI-H2342
Second: LK-2
The relative viability of the first is higher: 0.781 for the first, 0.326 for the second.

First: NCI-H358
Second: NCI-H1395
The relative viability of the first is lower: 0.195 for the first, 0.696 for the second.

For SK-MES-1, the relative viability was 0.382.

same assay, conditions: first compound 0.3 µM

First: ABC-1
Second: NCI-H1944
The relative viability of the first is higher: 1.54 for the first, 0.364 for the second.

Compared with NCI-H2085, NCI-H441 is lower in relative viability: 0.518 for the first, 0.203 for the second.

First: NCI-H522
Second: EMC-BAC-2
The relative viability of the first is lower: 0.666 for the first, 0.905 for the second.

Compared with NCI-H2170, UMC-11 is higher in relative viability: 0.36 for the first, 0.434 for the second.

First: NCI-H650
Second: LCLC-103H
The relative viability of the first is lower: 0.251 for the first, 0.745 for the second.

Going from NCI-H596 to HCC-827, the relative viability falls from 0.88 to 0.283.

First: COR-L 105
Second: NCI-H2126
The relative viability of the first is higher: 0.675 for the first, 0.609 for the second.

Going from A549 to NCI-H647, the relative viability rises from 0.0722 to 0.234.

Compared with LOU-NH91, HCC-78 is lower in relative viability: 0.861 for the first, 0.474 for the second.

Going from HCC-44 to NCI-H1651, the relative viability falls from 0.872 to 0.243.

First: NCI-H1755
Second: HOP-62
The relative viability of the first is higher: 0.583 for the first, 0.217 for the second.

Going from PC-14 to NCI-H1650, the relative viability rises from 0.147 to 0.329.

Going from ChaGo-K-1 to A-427, the relative viability rises from 0.402 to 0.504.

Compared with NCI-H1355, NCI-H1648 is higher in relative viability: 0.317 for the first, 0.495 for the second.

Compared with NCI-H1792, HCC-15 is higher in relative viability: 0.287 for the first, 0.636 for the second.

With NCI-H1793 the relative viability was 0.418.

Source: the supplement of paper PMC10307832
